ChEMBL document CHEMBL1909046, “DrugMatrix in vitro pharmacology data”

Legend:
[1] = target: Delta-type opioid receptor (Homo sapiens, UniProt P41143); type: cell membranes, HEK293, Membrane; conditions: hek293; further: in other assays of this panel Not Active means under 50% inhibition at 10 µM
[2] = DRUGMATRIX: GABAA, Muscimol, Central radioligand binding (ligand: [3H] Muscimol); type: cell membranes, Rattus norvegicus, Wistar, Brain, Membrane; conditions: Not Active = under 50% inhibition at 10 µM
Endothelin-1 receptor = target: T1, Endothelin-1 receptor (Homo sapiens, UniProt P25101); type: cell membranes, Membrane; conditions: cho-k1; further: in other assays of this panel Not Active means under 50% inhibition at 10 µM
T1 sequence (P25101 whole entry): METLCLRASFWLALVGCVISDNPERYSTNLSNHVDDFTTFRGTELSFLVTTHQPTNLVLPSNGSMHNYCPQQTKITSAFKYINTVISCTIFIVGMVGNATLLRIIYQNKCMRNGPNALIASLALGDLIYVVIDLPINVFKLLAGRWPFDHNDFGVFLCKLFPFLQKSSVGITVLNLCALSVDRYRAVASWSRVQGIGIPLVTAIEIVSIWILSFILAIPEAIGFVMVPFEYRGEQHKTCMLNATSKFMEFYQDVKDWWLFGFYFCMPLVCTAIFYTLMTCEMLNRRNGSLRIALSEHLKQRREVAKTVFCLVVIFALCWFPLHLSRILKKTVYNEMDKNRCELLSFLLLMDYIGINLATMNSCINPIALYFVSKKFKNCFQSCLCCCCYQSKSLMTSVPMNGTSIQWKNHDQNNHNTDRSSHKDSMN

[3] = target: Voltage-gated inwardly rectifying potassium channel KCNH2 (Homo sapiens, UniProt Q12809); conditions: hek293; further: in other assays of this panel Not Active means under 50% inhibition at 10 µM
[4] = DRUGMATRIX: Atrial Natriuretic Factor (ANF) radioligand binding (ligand: [125I] ANF (rat)); type: cell membranes, Cavia porcellus, Dunkin-Hartley, Adrenal gland, Membrane; conditions: Not Active = under 50% inhibition at 10 µM
[5] = DRUGMATRIX: Platelet-Derived Growth Factor (PDGF) radioligand binding (ligand: [125I] PDGF); type: cell-based; conditions: nih3t3; Not Active = under 50% inhibition at 10 µM
Substance-P receptor = Substance-P receptor (Homo sapiens, UniProt P25103); type: cell membranes, Membrane; conditions: cho; further: in other assays of this panel Not Active means under 50% inhibition at 10 µM
D(1A) dopamine receptor = D(1A) dopamine receptor (Homo sapiens, UniProt P21728); test: DRUGMATRIX: Dopamine D1 radioligand binding (ligand: [3H] SCH-23390); type: cell membranes, CHO, Membrane; conditions: cho; Not Active = under 50% inhibition at 10 µM
Chain of D(1A) dopamine receptor (P21728 whole entry): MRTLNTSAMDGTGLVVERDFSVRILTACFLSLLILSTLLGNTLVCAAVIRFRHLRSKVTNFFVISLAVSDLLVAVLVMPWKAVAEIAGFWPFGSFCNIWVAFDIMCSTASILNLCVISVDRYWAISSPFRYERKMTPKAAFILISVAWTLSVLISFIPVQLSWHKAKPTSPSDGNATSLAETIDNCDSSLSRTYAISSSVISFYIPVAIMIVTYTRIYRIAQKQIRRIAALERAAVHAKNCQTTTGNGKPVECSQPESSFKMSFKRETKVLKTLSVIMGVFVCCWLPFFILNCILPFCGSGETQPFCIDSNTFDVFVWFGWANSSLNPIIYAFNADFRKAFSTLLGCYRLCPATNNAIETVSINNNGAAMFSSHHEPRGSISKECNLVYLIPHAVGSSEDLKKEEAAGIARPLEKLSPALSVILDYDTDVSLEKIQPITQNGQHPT

Chain of Delta-type opioid receptor (P41143 whole entry): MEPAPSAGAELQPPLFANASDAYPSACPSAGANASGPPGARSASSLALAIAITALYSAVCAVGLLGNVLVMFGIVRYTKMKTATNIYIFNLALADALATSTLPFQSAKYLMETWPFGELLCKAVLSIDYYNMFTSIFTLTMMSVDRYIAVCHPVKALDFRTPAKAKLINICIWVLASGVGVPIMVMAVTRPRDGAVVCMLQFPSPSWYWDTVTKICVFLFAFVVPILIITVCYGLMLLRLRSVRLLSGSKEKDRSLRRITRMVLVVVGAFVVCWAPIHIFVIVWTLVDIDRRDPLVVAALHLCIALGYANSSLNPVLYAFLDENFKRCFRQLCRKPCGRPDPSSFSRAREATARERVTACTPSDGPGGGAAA
Chain of Voltage-gated inwardly rectifying potassium channel KCNH2 (Q12809 whole entry): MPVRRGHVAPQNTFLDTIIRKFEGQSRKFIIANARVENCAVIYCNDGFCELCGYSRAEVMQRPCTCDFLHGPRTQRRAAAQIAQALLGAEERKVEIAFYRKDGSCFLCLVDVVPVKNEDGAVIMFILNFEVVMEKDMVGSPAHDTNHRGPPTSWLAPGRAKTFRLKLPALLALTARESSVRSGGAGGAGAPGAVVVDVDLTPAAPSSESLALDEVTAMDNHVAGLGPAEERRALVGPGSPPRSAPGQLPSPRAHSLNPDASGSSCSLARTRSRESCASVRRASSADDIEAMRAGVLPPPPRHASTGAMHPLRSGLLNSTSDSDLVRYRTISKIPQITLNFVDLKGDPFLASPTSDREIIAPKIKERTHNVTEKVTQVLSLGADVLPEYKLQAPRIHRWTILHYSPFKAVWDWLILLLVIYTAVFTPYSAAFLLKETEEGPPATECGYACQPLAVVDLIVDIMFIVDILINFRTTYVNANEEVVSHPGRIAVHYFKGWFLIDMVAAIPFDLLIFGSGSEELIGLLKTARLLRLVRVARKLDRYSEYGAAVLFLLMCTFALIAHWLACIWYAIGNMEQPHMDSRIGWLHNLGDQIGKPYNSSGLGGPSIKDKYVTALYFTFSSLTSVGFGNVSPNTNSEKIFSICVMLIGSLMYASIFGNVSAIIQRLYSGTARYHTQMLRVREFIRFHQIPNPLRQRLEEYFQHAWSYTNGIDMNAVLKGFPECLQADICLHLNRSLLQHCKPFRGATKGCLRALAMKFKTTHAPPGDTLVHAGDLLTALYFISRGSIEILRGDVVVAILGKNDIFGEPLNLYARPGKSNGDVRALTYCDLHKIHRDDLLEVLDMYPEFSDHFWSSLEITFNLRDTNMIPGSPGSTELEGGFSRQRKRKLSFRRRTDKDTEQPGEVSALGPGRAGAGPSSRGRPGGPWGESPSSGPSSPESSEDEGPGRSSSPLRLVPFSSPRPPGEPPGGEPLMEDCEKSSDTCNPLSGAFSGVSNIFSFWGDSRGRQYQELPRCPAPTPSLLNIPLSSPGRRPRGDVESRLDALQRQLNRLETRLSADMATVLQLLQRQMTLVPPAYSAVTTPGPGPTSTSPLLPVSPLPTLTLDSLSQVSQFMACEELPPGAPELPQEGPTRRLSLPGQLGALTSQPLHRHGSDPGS
Chain of Substance-P receptor (P25103 whole entry): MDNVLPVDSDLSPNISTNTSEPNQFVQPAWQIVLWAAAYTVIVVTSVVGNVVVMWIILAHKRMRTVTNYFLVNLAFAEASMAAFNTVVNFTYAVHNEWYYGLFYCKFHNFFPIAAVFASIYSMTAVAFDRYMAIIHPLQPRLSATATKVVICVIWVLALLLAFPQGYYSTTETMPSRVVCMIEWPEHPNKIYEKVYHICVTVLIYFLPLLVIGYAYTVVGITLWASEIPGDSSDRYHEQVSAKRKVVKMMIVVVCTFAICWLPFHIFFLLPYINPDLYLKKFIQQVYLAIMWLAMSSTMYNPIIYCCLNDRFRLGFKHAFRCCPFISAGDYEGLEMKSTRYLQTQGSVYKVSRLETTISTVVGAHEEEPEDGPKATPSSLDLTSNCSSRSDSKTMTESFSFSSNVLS

CC12CCC(CC1=O)C2(C)C (stereo not given) [CAMPHOR]
Not Active: IC50 [1] | IC50 [2] | Ki [2] | IC50 (Endothelin-1 receptor) | IC50 [3] | Ki [3] | IC50 [4] | Ki [4] | IC50 [5] | Ki [5] | IC50 (Substance-P receptor) | IC50 (D(1A) dopamine receptor)

O=C(O)c1ccccc1 [BENZOIC ACID]
Not Active: IC50 [1] | IC50 [2] | Ki [2] | IC50 (Endothelin-1 receptor) | IC50 [3] | Ki [3] | IC50 [4] | Ki [4] | IC50 [5] | Ki [5] | IC50 (Substance-P receptor) | IC50 (D(1A) dopamine receptor)

Oc1ncnc2[nH]ncc12 [ALLOPURINOL]
Not Active: IC50 [1] | IC50 [2] | Ki [2] | IC50 (Endothelin-1 receptor) | IC50 [3] | Ki [3] | IC50 [4] | Ki [4] | IC50 [5] | Ki [5] | IC50 (Substance-P receptor) | IC50 (D(1A) dopamine receptor)

NC(=O)CN1CCCC1=O
Not Active: IC50 [1] | IC50 [2] | Ki [2] | IC50 (Endothelin-1 receptor) | IC50 [3] | Ki [3] | IC50 [4] | Ki [4] | IC50 [5] | Ki [5] | IC50 (Substance-P receptor) | IC50 (D(1A) dopamine receptor)

C=CCO [ALLYL ALCOHOL]
Not Active: IC50 [1] | IC50 [2] | Ki [2] | IC50 (Endothelin-1 receptor) | IC50 [3] | Ki [3] | IC50 [4] | Ki [4] | IC50 [5] | Ki [5] | IC50 (Substance-P receptor) | IC50 (D(1A) dopamine receptor)

CCCCCCNC(=O)n1cc(F)c(=O)[nH]c1=O [CARMOFUR]
Not Active: IC50 [1] | IC50 [2] | Ki [2] | IC50 (Endothelin-1 receptor) | IC50 [3] | Ki [3] | IC50 [4] | Ki [4] | IC50 [5] | Ki [5] | IC50 (Substance-P receptor) | IC50 (D(1A) dopamine receptor)

CCN(CCO)CCCC(C)Nc1ccnc2cc(Cl)ccc12 (stereo not given) [HYDROXYCHLOROQUINE]
Not Active: IC50 [1] | IC50 [2] | Ki [2] | IC50 (Endothelin-1 receptor) | IC50 [3] | Ki [3] | IC50 [4] | Ki [4] | IC50 [5] | Ki [5] | IC50 (Substance-P receptor) | IC50 (D(1A) dopamine receptor)

O=c1[nH]cnc2c1ncn2[C@H]1CC[C@@H](CO)O1 [DIDANOSINE]
Not Active: IC50 [1] | IC50 [2] | Ki [2] | IC50 (Endothelin-1 receptor) | IC50 [3] | Ki [3] | IC50 [4] | Ki [4] | IC50 [5] | Ki [5] | IC50 (Substance-P receptor) | IC50 (D(1A) dopamine receptor)

Cl.NC[C@H]1CC[C@H](C(=O)Oc2ccc(CCC(=O)O)cc2)CC1 [CETRAXATE HYDROCHLORIDE]
Not Active: IC50 [1] | IC50 [2] | Ki [2] | IC50 (Endothelin-1 receptor) | IC50 [3] | Ki [3] | IC50 [4] | Ki [4] | IC50 [5] | Ki [5] | IC50 (Substance-P receptor) | IC50 (D(1A) dopamine receptor)

COc1cc([C@@H]2c3cc4c(cc3[C@H](O)[C@H]3COC(=O)[C@H]23)OCO4)cc(OC)c1OC [PODOFILOX]
Not Active: IC50 [1] | IC50 [2] | Ki [2] | IC50 (Endothelin-1 receptor) | IC50 [3] | Ki [3] | IC50 [4] | Ki [4] | IC50 [5] | Ki [5] | IC50 (Substance-P receptor) | IC50 (D(1A) dopamine receptor)

COc1cc(/C=C/C(=O)O)ccc1O [FERULATE]
Not Active: IC50 [1] | IC50 [2] | Ki [2] | IC50 (Endothelin-1 receptor) | IC50 [3] | Ki [3] | IC50 [4] | Ki [4] | IC50 [5] | Ki [5] | IC50 (Substance-P receptor) | IC50 (D(1A) dopamine receptor)

O=C(O)CCc1nc(-c2ccccc2)c(-c2ccccc2)o1 [OXAPROZIN]
Not Active: IC50 [1] | IC50 [2] | Ki [2] | IC50 (Endothelin-1 receptor) | IC50 [3] | Ki [3] | IC50 [4] | Ki [4] | IC50 [5] | Ki [5] | IC50 (Substance-P receptor) | IC50 (D(1A) dopamine receptor)

c1ccc(Cn2ccnc2)cc1
Not Active: IC50 [1] | IC50 [2] | Ki [2] | IC50 (Endothelin-1 receptor) | IC50 [3] | Ki [3] | IC50 [4] | Ki [4] | IC50 [5] | Ki [5] | IC50 (Substance-P receptor) | IC50 (D(1A) dopamine receptor)

C[C@H]1C[C@H]2[C@@H]3CCC4=CC(=O)C=C[C@]4(C)[C@@]3(F)[C@@H](O)C[C@]2(C)[C@@]1(O)C(=O)CO [BETAMETHASONE]
Not Active: IC50 [1] | IC50 [2] | Ki [2] | IC50 (Endothelin-1 receptor) | IC50 [3] | Ki [3] | IC50 [4] | Ki [4] | IC50 [5] | Ki [5] | IC50 (Substance-P receptor) | IC50 (D(1A) dopamine receptor)

Nc1nc(N)c2nc(CNc3ccc(C(=O)N[C@@H](CCC(=O)O)C(=O)O)cc3)cnc2n1 [AMINOPTERIN]
Not Active: IC50 [1] | IC50 [2] | Ki [2] | IC50 (Endothelin-1 receptor) | IC50 [3] | Ki [3] | IC50 [4] | Ki [4] | IC50 [5] | Ki [5] | IC50 (Substance-P receptor) | IC50 (D(1A) dopamine receptor)

CC(=O)Nc1ccc2c(c1)Cc1ccccc1-2 [2-ACETYLAMINOFLUORENE]
Not Active: IC50 [1] | IC50 [2] | Ki [2] | IC50 (Endothelin-1 receptor) | IC50 [3] | Ki [3] | IC50 [4] | Ki [4] | IC50 [5] | Ki [5] | IC50 (Substance-P receptor) | IC50 (D(1A) dopamine receptor)

C=C(Cl)Cl [1,1-DICHLOROETHENE]
Not Active: IC50 [1] | IC50 [2] | Ki [2] | IC50 (Endothelin-1 receptor) | IC50 [3] | Ki [3] | IC50 [4] | Ki [4] | IC50 [5] | Ki [5] | IC50 (Substance-P receptor) | IC50 (D(1A) dopamine receptor)

C#C[C@]1(O)CC[C@H]2[C@@H]3CCC4=CC(=O)CC[C@@H]4[C@H]3CC[C@@]21C [NORETHINDRONE]
Not Active: IC50 [1] | IC50 [2] | Ki [2] | IC50 (Endothelin-1 receptor) | IC50 [3] | Ki [3] | IC50 [4] | Ki [4] | IC50 [5] | Ki [5] | IC50 (Substance-P receptor) | IC50 (D(1A) dopamine receptor)

c1ccc2c(c1)Nc1ccccc1S2 [PHENOTHIAZINE]
Not Active: IC50 [1] | IC50 [2] | Ki [2] | IC50 (Endothelin-1 receptor) | IC50 [3] | Ki [3] | IC50 [4] | Ki [4] | IC50 [5] | Ki [5] | IC50 (Substance-P receptor) | IC50 (D(1A) dopamine receptor)

C[C@H](C(=O)O)c1ccc2oc(-c3ccc(F)cc3)nc2c1 [FLUNOXAPROFEN]
Not Active: IC50 [1] | IC50 [2] | Ki [2] | IC50 (Endothelin-1 receptor) | IC50 [3] | Ki [3] | IC50 [4] | Ki [4] | IC50 [5] | Ki [5] | IC50 (Substance-P receptor) | IC50 (D(1A) dopamine receptor)
